# Earlier results, collected in doi:10.1101/2025.05.13.653654v1, “PEPlife2: A Updated Repository of the Half-life of Peptides” (bioRxiv, 2025).
# Excerpt: Our database includes various chemical modifications aimed at enhancing the stability of peptides or proteins, such as PEGylation, Fc-conjugation, amino acid replacements (e.g., Lys substitutions followed by fatty acid conjugation), D-amino acid substitutions, non-natural amino acid substitutions (e.g., Aib, Sar, pGlu), cyclization, amidation, acetylation, and others.
Half life [h],Substance,"half-life (approximate values, effect of N-terminal acetylation and C-terminal amidation, matrix not given, curated database entry, ref not given)"
1.16,CMPRLRGC [VH434],
,DRVYIHP [Ang(1-7)],approximately 9 minutes
3.03,cMPRLRGC [VH445],
